In general, melting point refers to the temperature, or range, at which the solid turns liquid.

Structures are written as SMILES. ≈ marks a conversion by molar mass, not a printed value.

For one series, the system named is Candida. The series can be described thus: In vitro MIC, NCCLS M27A, Candida species. Set-up: MIC, Candida albicans 1.549 / MIC, Candida albicans Y-01-19 / MIC, C. krusei 766-1 / MIC, C. krusei Q. C / MIC, Candida tropicalis ATCC / MIC, C. glabrata 90030: unit not given beside the values; MIC, Candida albicans A 26 / MIC, C. parapsilosis Q. C.: unit not given here. The class given is cell-based. To be noted: for MIC, C. glabrata 90030: C. glabrata strain 90030; for MIC, C. krusei 766-1: C. krusei strain 766-1; for MIC, C. krusei Q. C: C. krusei strain Q. C; for MIC, C. parapsilosis Q. C.: C. parapsilosis strain Q. C.; for MIC, Candida albicans 1.549: Candida albicans strain 1.549; for MIC, Candida albicans A 26: Candida albicans strain A 26; for MIC, Candida albicans Y-01-19: Candida albicans strain Y-01-19.

The next series has as its system Histoplasma capsulatum. The class given is cell-based.
The subject of the next series is A. fumigatus s 1008. The series can be described thus: In vitro MIC, NCCLS M38P broth method (RPMI 1640/MOPS pH7), Aspergillus fumigatus. It counts as cell-based. Conditions: A. fumigatus strain 1008.
For another series, the system named is Cryptococcus neoformans. The experiment in a line: In vitro MIC, NCCLS M27A, Cryptococcus neoformans. The class given is cell-based. More on the design: MIC, C. neoformans I: unit not given beside the values; MIC, C. neoformans M 106: unit not given here. Conditions: for MIC, C. neoformans I: C. neoformans strain I; for MIC, C. neoformans M 106: C. neoformans strain M 106.

The molecule `O=c1n(-c2ccc(N3CCN(c4ccc(F)cc4)CC3)cc2)cnn1CC(O)(Cn1cncn1)c1ccc(F)cc1F` (stereo not drawn) [Compound 43, 2-[2-(2,4-Difluorophenyl)-2-hydroxy-3-(1H-1,2,4-triazol-1-yl)propyl]-4-{4-[4-(4-fluorophenyl)-1-piperazinyl]phenyl}-3-(2H,4H)-1,2,4-triazolone] gave a melting point of 173 to 177 °C. Further, in the series with Candida, the “MIC, C. glabrata 90030” value is on record as 0.40; the “MIC, C. krusei 766-1” value came out at 1.56; the “MIC, C. krusei Q. C” value is listed as 0.20; the “MIC, C. parapsilosis Q. C.” value is listed as less than 0.02. In the series on Candida, the “MIC, Candida albicans 1.549” value is less than 0.02; the “MIC, Candida albicans A 26” value is less than 0.02; the “MIC, Candida albicans Y-01-19” value was 0.05; the “MIC, Candida tropicalis ATCC” value amounted to 12.50. Also, the MIC, H. capsulatum in the series with Histoplasma capsulatum was less than 0.02 µg/mL. In the series with A. fumigatus s 1008, the “MIC, A. fumigatus 1008” value is given as more than 12.5. In the series on Cryptococcus neoformans, the “MIC, C. neoformans I” value amounted to 0.05 and the “MIC, C. neoformans M 106” value was 0.05.

In turn, `O=c1n(-c2ccc(N3CCN(c4ccc(O)cc4)CC3)cc2)cnn1CC(O)(Cn1cncn1)c1ccc(F)cc1F` (stereo not drawn) [Compound 44, 2-[2-(2,4-Difluorophenyl)-2-hydroxy-3-(1H-1,2,4-triazol-1-yl)propyl]-4-{4-[4-(4-hydroxyphenyl)-1-piperazinyl]phenyl}-3-(2H,4H)-1,2,4-triazolone] yielded a melting point of 246 to 248 °C. For the same molecule, in the series with Candida, the “MIC, C. glabrata 90030” value was 6.25; the “MIC, C. krusei 766-1” value is given as more than 12.5; the “MIC, C. krusei Q. C” value is recorded as 6.25; the “MIC, C. parapsilosis Q. C.” value is given as 0.20. Also, in the series on Candida, the “MIC, Candida albicans 1.549” value is more than 12.5; the “MIC, Candida albicans A 26” value is recorded as more than 12.5; the “MIC, Candida albicans Y-01-19” value was found to be 1.56; the “MIC, Candida tropicalis ATCC” value stood at 6.25. For the same molecule, the MIC, H. capsulatum against Histoplasma capsulatum worked out at 1.56 µg/mL (≈ 2.71 µM). In addition, the “MIC, A. fumigatus 1008” value in the series on A. fumigatus s 1008 is more than 12.5. Further, in the series with Cryptococcus neoformans, the “MIC, C. neoformans I” value is recorded as 1.56 and the “MIC, C. neoformans M 106” value came out at 3.12.

Consider `O=c1n(-c2ccc(N3CCN(c4ccc(Cl)cc4)CC3)cc2)cnn1CC(O)(Cn1cncn1)c1ccc(F)cc1F` (stereo not drawn) [Compound 47, 2-[2-(2,4-Difluorophenyl)-2-hydroxy-3-(1H-1,2,4-triazol-1-yl)propyl]-4-{4-[4-(4-chlorophenyl)-1-piperazinyl]phenyl}-3-(2H,4H)-1,2,4-triazolone], for which the melting point fell in the range of 207 to 208 °C. In the series on Candida, the “MIC, C. glabrata 90030” value was determined as 3.12; the “MIC, C. krusei 766-1” value is 1.56; the “MIC, C. krusei Q. C” value turned out to be 1.56; the “MIC, C. parapsilosis Q. C.” value was less than 0.02. Besides, in the series on Candida, the “MIC, Candida albicans 1.549” value is given as 0.20; the “MIC, Candida albicans A 26” value was less than 0.02; the “MIC, Candida albicans Y-01-19” value came to 0.20; the “MIC, Candida tropicalis ATCC” value is given as less than 0.02. Besides, the MIC, H. capsulatum against Histoplasma capsulatum was found to be 0.05 µg/mL (≈ 0.0843 µM). For the same molecule, the “MIC, A. fumigatus 1008” value against A. fumigatus s 1008 is 3.12. In the series with Cryptococcus neoformans, the “MIC, C. neoformans I” value is listed as less than 0.02 and the “MIC, C. neoformans M 106” value is on record as 0.40.

Regarding `Cc1ccc(Cl)cc1N1CCN(c2ccc(-n3cnn(CC(O)(Cn4cncn4)c4ccc(F)cc4F)c3=O)cc2)CC1` (stereo not drawn) [Compound 48, 2-[2-(2,4-Difluorophenyl)-2-hydroxy-3-(1H-1,2,4-triazol-1-yl)propyl]-4-{4-[4-(5-chloro-2-methylphenyl)-1-piperazinyl]phenyl}-3-(2H,4H)-1,2,4-triazolone], the melting point lay in the range of 82 to 87 °C. In the series on Candida, the “MIC, C. glabrata 90030” value turned out to be 1.00; the “MIC, C. krusei 766-1” value is reported as 1.00; the “MIC, C. krusei Q. C” value worked out at 0.50; the “MIC, C. parapsilosis Q. C.” value is listed as 0.12. In addition, in the series on Candida, the “MIC, Candida albicans 1.549” value worked out at 0.50; the “MIC, Candida albicans A 26” value is less than 0.03; the “MIC, Candida albicans Y-01-19” value is given as 0.50; the “MIC, Candida tropicalis ATCC” value is recorded as less than 0.03. The MIC, H. capsulatum against Histoplasma capsulatum stood at 0.25 µg/mL (≈ 0.412 µM). Moreover, the “MIC, A. fumigatus 1008” value in the series on A. fumigatus s 1008 was more than 16. Further, in the series on Cryptococcus neoformans, the “MIC, C. neoformans I” value was less than 0.03 and the “MIC, C. neoformans M 106” value was found to be 0.06.

For the molecule `Cc1ccc(N2CCN(c3ccc(-n4cnn(CC(O)(Cn5cncn5)c5ccc(F)cc5F)c4=O)cc3)CC2)cc1Cl` (stereo not drawn) [Compound 49, 2-[2-(2,4-Difluorophenyl)-2-hydroxy-3-(1H-1,2,4-triazol-1-yl)propyl]-4-{4-[4-(3-chloro-4-methylphenyl)-1-piperazinyl]phenyl}-3-(2H,4H)-1,2,4-triazolone], the melting point was in the range of 189 to 201 °C. Moreover, in the series with Candida, the “MIC, C. glabrata 90030” value is recorded as 0.25; the “MIC, C. krusei 766-1” value amounted to 0.25; the “MIC, C. krusei Q. C” value came to 0.06; the “MIC, C. parapsilosis Q. C.” value is less than 0.03. Besides, in the series with Candida, the “MIC, Candida albicans 1.549” value is recorded as less than 0.03; the “MIC, Candida albicans A 26” value is reported as less than 0.03; the “MIC, Candida albicans Y-01-19” value was less than 0.03; the “MIC, Candida tropicalis ATCC” value is less than 0.03. The molecule further showed an MIC, H. capsulatum with Histoplasma capsulatum of less than 0.03 µg/mL. Moreover, the “MIC, A. fumigatus 1008” value with A. fumigatus s 1008 is 4.00. Further, in the series on Cryptococcus neoformans, the “MIC, C. neoformans I” value was less than 0.03 and the “MIC, C. neoformans M 106” value is less than 0.03.

For `O=c1n(-c2ccc(N3CCN(c4ccc(Cl)cc4Cl)CC3)cc2)cnn1CC(O)(Cn1cncn1)c1ccc(F)cc1F` (stereo not drawn) [Compound 50, 2-[2-(2,4-Difluorophenyl)-2-hydroxy-3-(1H-1,2,4-triazol-1-yl)propyl]-4-{4-[4-(2,4-dichlorophenyl)-1-piperazinyl]phenyl}-3-(2H,4H)-1,2,4-triazolone], the melting point fell in the range of 97 to 99 °C. In the series with Candida, the “MIC, C. glabrata 90030” value is on record as 0.50; the “MIC, C. krusei 766-1” value is on record as 0.50; the “MIC, C. krusei Q. C” value is recorded as 0.25; the “MIC, C. parapsilosis Q. C.” value was less than 0.03. For the same molecule, in the series with Candida, the “MIC, Candida albicans 1.549” value is 0.12; the “MIC, Candida albicans A 26” value was less than 0.03; the “MIC, Candida albicans Y-01-19” value is reported as 0.12; the “MIC, Candida tropicalis ATCC” value was less than 0.03. In the series with Histoplasma capsulatum, the MIC, H. capsulatum was less than 0.03 µg/mL. The “MIC, A. fumigatus 1008” value in the series with A. fumigatus s 1008 came to 2.00. Besides, in the series with Cryptococcus neoformans, the “MIC, C. neoformans I” value is less than 0.03 and the “MIC, C. neoformans M 106” value was less than 0.03.

`O=c1n(-c2ccc(N3CCN(c4cccc(C(F)(F)F)c4)CC3)cc2)cnn1CC(O)(Cn1cncn1)c1ccc(F)cc1F` (stereo not drawn) [Compound 51, 2-[2-(2,4-Difluorophenyl)-2-hydroxy-3-(1H-1,2,4-triazol-1-yl)propyl]-4-{4-[4-(3-trifluoromethylphenyl)-1-piperazinyl]phenyl}-3-(2H,4H)-1,2,4-triazolone] registered a melting point of 166 to 168 °C. Further, in the series on Candida, the “MIC, C. glabrata 90030” value is 1.00; the “MIC, C. krusei 766-1” value is recorded as 1.00; the “MIC, C. krusei Q. C” value turned out to be 0.25; the “MIC, C. parapsilosis Q. C.” value came to 0.06. Moreover, in the series with Candida, the “MIC, Candida albicans 1.549” value is recorded as 0.25; the “MIC, Candida albicans A 26” value was less than 0.03; the “MIC, Candida albicans Y-01-19” value is 0.25; the “MIC, Candida tropicalis ATCC” value is recorded as less than 0.03. The molecule further yielded an MIC, H. capsulatum in the series on Histoplasma capsulatum of less than 0.03 µg/mL. In addition, the “MIC, A. fumigatus 1008” value in the series on A. fumigatus s 1008 is given as more than 16. Moreover, in the series with Cryptococcus neoformans, the “MIC, C. neoformans I” value is listed as less than 0.03 and the “MIC, C. neoformans M 106” value was less than 0.03.

For the molecule `O=c1n(-c2ccc(N3CCN(c4ccc(F)cc4F)CC3)cc2)cnn1CC(O)(Cn1cncn1)c1ccc(F)cc1F` (stereo not drawn) [Compound 52, 2-[2-(2,4-Difluorophenyl)-2-hydroxy-3-(1H-1,2,4-triazol-1-yl)propyl]-4-{4-[4-(2,4-difluorophenyl)-1-piperazinyl]phenyl}-3-(2H,4H)-1,2,4-triazolone], the melting point was in the range of 157 to 158 °C. In the series on Candida, the “MIC, C. glabrata 90030” value worked out at 1.00; the “MIC, C. krusei 766-1” value is recorded as 4.00; the “MIC, C. krusei Q. C” value is 0.50; the “MIC, C. parapsilosis Q. C.” value is on record as less than 0.03. Moreover, in the series with Candida, the “MIC, Candida albicans 1.549” value is reported as 0.06; the “MIC, Candida albicans A 26” value is reported as less than 0.03; the “MIC, Candida albicans Y-01-19” value is reported as 0.12; the “MIC, Candida tropicalis ATCC” value was less than 0.03. The MIC, H. capsulatum in the series on Histoplasma capsulatum was less than 0.03 µg/mL. Further, in the series with A. fumigatus s 1008, the “MIC, A. fumigatus 1008” value is recorded as more than 16. In the series with Cryptococcus neoformans, the “MIC, C. neoformans I” value is on record as less than 0.03 and the “MIC, C. neoformans M 106” value is given as less than 0.03.

Consider `O=c1n(-c2ccc(N3CCN(c4ccc(F)c(Cl)c4)CC3)cc2)cnn1CC(O)(Cn1cncn1)c1ccc(F)cc1F` (stereo not drawn) [Compound 53, 2-[2-(2,4-Difluorophenyl)-2-hydroxy-3-(1H-1,2,4-triazol-1-yl)propyl]-4-{4-[4-(3-chloro-4-fluorophenyl)-1-piperazinyl]phenyl}-3-(2H,4H)-1,2,4-triazolone], for which the melting point lay in the range of 182 to 185 °C. In the series with Candida, the “MIC, C. glabrata 90030” value is given as 0.50; the “MIC, C. krusei 766-1” value is given as 0.50; the “MIC, C. krusei Q. C” value amounted to 0.12; the “MIC, C. parapsilosis Q. C.” value is less than 0.03. Besides, in the series on Candida, the “MIC, Candida albicans 1.549” value is reported as 0.06; the “MIC, Candida albicans A 26” value is less than 0.03; the “MIC, Candida albicans Y-01-19” value is less than 0.03; the “MIC, Candida tropicalis ATCC” value was less than 0.03. For the same molecule, in the series on Histoplasma capsulatum, the MIC, H. capsulatum was less than 0.03 µg/mL. Besides, in the series on A. fumigatus s 1008, the “MIC, A. fumigatus 1008” value worked out at 4.00. For the same molecule, in the series with Cryptococcus neoformans, the “MIC, C. neoformans I” value was less than 0.03 and the “MIC, C. neoformans M 106” value is given as less than 0.03.

These data come from US6670363B1, “Azole compounds as therapeutic agents for fungal infections” (Ranbaxy Laboratories Limited, priority 2000, dated 2003).
